From ChEMBL document CHEMBL3507680, “University of Dundee, Gates Library screen for HepG2 cell viability”

Assay: Human HepG2 cell viability assay in 384 well format
Format: toxicity, cell-based
Design: dose 125 nL, time 70.5 hour; cytotoxicity at 70.5 h: concentration not given beside the values
Settings: HepG2 cells, read-out: Inhibition

SMILES	cytotoxicity at 70.5 h
CC(C)C(NC(=O)Nc1ccc(F)cc1)C(=O)N(C)C (centres undefined)	3.02%
Cc1ccc(C)c(OC2CCN(C(=O)NCC(=O)N3CCCC3)CC2)c1	-5.3%
CCN1CCN(c2ccc(NC(C)c3nc(C(C)C)no3)c(C)c2)CC1 (centres undefined)	-12.5%
CC(C)(C)n1nc(C(=O)NC2CCN(CC(N)=O)CC2)cc1C1CC1	-11.7%
Cc1cc(NC(=O)C(C)Nc2cccc(COCc3ccco3)c2)on1 (centres undefined)	-20.2%
N#Cc1ccc(NCc2cccc(OCC3CCCO3)c2)nc1 (centres undefined)	-8.7%
Cc1cc(N2CCCC2c2nnc3n2CCCCC3)nc(N)n1 (centres undefined)	22.8%
CCc1noc(CN(CCC2CCCCC2)CC(N)=O)n1	-14.6%
C=C(C)CN(CC)C(=O)c1cc(F)ccc1N1CCN(C)CC1	-12.2%
Cc1ccc(C(=O)NCC(c2cnn(C)c2)N(C)C)c(O)c1 (centres undefined)	25.6%
Cc1c(C2CC2)n[nH]c1NC(=O)C1CCCN(C(=O)NCC(C)C)C1 (centres undefined)	-4.52%
CCc1cc(CNC(=O)C2CCCN(C(=O)NCC(C)C)C2)[nH]n1 (centres undefined)	-11.9%
Cc1ccc(-n2cc(S(=O)(=O)Nc3cccc(C(=O)O)c3C)cn2)cc1	-12.2%
Cc1n[nH]c(C)c1NC(=O)C1CCCN(C(=O)NCC(C)C)C1 (centres undefined)	-5.82%
CC(C)N(CC(N)=O)C(=O)c1cc(F)ccc1N1CCN(C)CC1	-5.36%
CCC(=O)N(CCC(=O)O)Cc1ccc(F)c(F)c1	-7.91%
CC(=O)c1ccc(NC(=O)C(NC(=O)Nc2ccccc2)C(C)C)cc1 (centres undefined)	-10.8%
Cc1ccc(F)c2c1CCCN2C(=O)c1cn(CC(=O)N(C)C)nn1	-7.17%
COCCN(CC(C)C)C(=O)c1cccc(Nc2cnccn2)c1	-13.9%
COCCCC(=O)N(CCC(=O)O)Cc1ccc(F)c(F)c1	-12.3%

SMILES	cytotoxicity at 70.5 h
COc1ccccc1NCC(=O)NCc1cc[nH]n1	26.9%
COc1ncnc(N)c1CNCC(C)Oc1ccccc1Cl (centres undefined)	-3.69%
COc1ccc(CNC(=O)CNc2ccccc2OC)cc1	2.91%
CCn1cnnc1CNC(=O)C1COc2ccc(Cl)cc2C1 (centres undefined)	-3.41%
CCCC(C(=O)NC1CCN(S(C)(=O)=O)CC1)c1ccccc1 (centres undefined)	-4.97%
O=C(NCC(=O)N1CC2(CCCC2)c2c(F)cccc21)C1CC1	0.771%
CCCc1cc(N2CCCC2Cn2nc(C)cc2C)n2ncnc2n1 (centres undefined)	-5.55%
CCCc1cc(N2CCCCC2Cn2cc(C)cn2)n2ncnc2n1 (centres undefined)	-6.83%
COc1cccc(F)c1C(C)NC(=O)NCCc1ccc(C)nc1 (centres undefined)	29.6%
COC(=O)c1ccc(N2CCC(N(C)c3ccccc3)CC2)nn1	3.35%
CCOc1cccc(COC(=O)c2ccc(Cl)cn2)n1	-8.76%
CCOc1cccc(COC(=O)c2cc(Cl)ccn2)n1	25.2%
CCOc1cccc(COC(=O)c2scnc2C)n1	5.38%
O=S(=O)(c1ccc(Cl)cc1)N1CCC(OCc2ccccn2)C1 (centres undefined)	2.04%
N#Cc1cccc(S(=O)(=O)CCN2CCOC2=O)c1	-8.07%
CC(C)Cc1nc(CNCc2cccc(N3CCCC3=O)c2)no1	-20.4%
CN(Cc1ccncc1)C(CO)c1cccc(F)c1 (centres undefined)	-27.2%
CC(C)c1nsc(N2CCC(OCCN3CCOCC3)CC2)n1	-22.2%
CC(NC1CCN(CC(=O)N(C)C)CC1)c1cnn(C(C)C)c1 (centres undefined)	-14.3%
CC(NC1CCN(CCc2ccncc2)CC1)c1cnn(C(C)C)c1 (centres undefined)	-18%

SMILES	cytotoxicity at 70.5 h
CN(Cc1ccccn1)C(CO)c1cccc(Br)c1 (centres undefined)	-1.08%
CC(Cn1cccn1)NCC(=O)N(C)Cc1ccsc1 (centres undefined)	35.4%
CC(C)(C)c1ncc(CNc2ccccc2SCCC(N)=O)s1	3.11%
Cc1oc(-c2ccccc2)nc1CN1CCC(c2ccnn2C)CC1	-78.8%
Cc1ccc(C(NCC(=O)N2CCNC(=O)C2)c2ccccc2)cc1 (centres undefined)	-104%
Cc1cc(N2CCc3cnc(C)nc3C2)n2nc(C(F)(F)F)nc2n1	-108%
Cc1noc(C)c1CS(=O)(=O)C(C)C(=O)N(C)c1ccccc1 (centres undefined)	-111%
O=C(CN(CC(O)c1ccc(F)cc1)C1CC1)NC(C1CC1)C1CC1 (centres undefined)	-90.6%
Cc1ccc(N2CCC(C(=O)NC3CCc4nccn4C3)CC2)nc1 (centres undefined)	-90.5%
CCc1nn(C)c2[nH]nc(NC(=O)c3cccnc3OC)c12	-112%
COc1ccc(C(N)=O)cc1NCc1ncc(-c2cccs2)o1	-14%
NC(=O)N1CCC(C(=O)NC2CCc3nccn3C2)CC1 (centres undefined)	-110%
COc1ccc(C(N)=O)cc1NCc1nc(-c2cccs2)oc1C	-102%
COc1ccc(NC(=O)c2ccccc2NCc2ncnn2C)cc1	-19.9%
CNC(=O)NC(C)c1c(F)cccc1Cl (centres undefined)	-107%
Cc1ccc(CNc2ccccc2SCCC(N)=O)s1	-99.2%
CC(C)n1cnnc1C1CCCN(S(=O)(=O)CCCF)C1 (centres undefined)	-93.6%
Cc1cc(NC(=O)N2CCCC2C(=O)NC2CC2)c2ncccc2c1 (centres undefined)	-98%
Cc1cc(NC(=O)N2CCCC2C(C)(C)O)c2ncccc2c1 (centres undefined)	-75.7%
